Here are results for eight compounds from ChEMBL document CHEMBL1201862, “PubChem BioAssay data set” (2004).

The target in data set [1] is Cytochrome P450 2C9 (Homo sapiens, UniProt P11712).
For data set [2], the target named is Cytochrome P450 3A4 (Homo sapiens, UniProt P08684).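 Also: CYP3A4 tested as one member of a cytochrome P450 panel screen.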
Data set [3] is described as follows: viability loss in THP-1 monocytes – THP-1 cells, cytotoxicity control for Vif-APOBEC3G degradation inhibitor project, dose response (AID 1117359). The format is functional. The conditions noted are these: THP-1.
The target in data set [4] is DNA dC->dU-editing enzyme APOBEC-3G (Homo sapiens, UniProt Q9HC16). In kind it is functional.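 Also: Dose-response counterscreen measuring inhibition of APOBEC3G DNA deaminase activity, run while confirming APOBEC3A inhibitors.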
The target of data set [5] is DNA dC->dU-editing enzyme APOBEC-3A (Homo sapiens, UniProt P31941). The data set can be described thus: Dose Response confirmation of small molecule APOBEC3A DNA Deaminase Inhibitors via a fluorescence-based single-stranded DNA deaminase assay. [Related pubchem assays (depositor defined):AID493011, AID493024]. The format is functional.
Data set [6] has as its target Nonstructural protein 1 (Influenza A virus, UniProt Q194T2). In kind it is functional, Influenza A virus (A/California/07/2009(H1N1)).
The subject of data set [7] is Streptococcus. Kind of data set: GAS UMAA2166 growth inhibition – luminescence, BacTiterGlo, counter-screen for streptokinase expression inhibitor project, dose response (AID 1915).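 Also: potency for reduction of bacterial viability or growth.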 The format is functional, organism-based. (In general: A counterscreen serves to expose hits that act by an unwanted route or on another target.)
Data set [8] deals with T1, Microphthalmia-associated transcription factor (Homo sapiens, UniProt O75030).
T1 sequence (O75030 whole entry): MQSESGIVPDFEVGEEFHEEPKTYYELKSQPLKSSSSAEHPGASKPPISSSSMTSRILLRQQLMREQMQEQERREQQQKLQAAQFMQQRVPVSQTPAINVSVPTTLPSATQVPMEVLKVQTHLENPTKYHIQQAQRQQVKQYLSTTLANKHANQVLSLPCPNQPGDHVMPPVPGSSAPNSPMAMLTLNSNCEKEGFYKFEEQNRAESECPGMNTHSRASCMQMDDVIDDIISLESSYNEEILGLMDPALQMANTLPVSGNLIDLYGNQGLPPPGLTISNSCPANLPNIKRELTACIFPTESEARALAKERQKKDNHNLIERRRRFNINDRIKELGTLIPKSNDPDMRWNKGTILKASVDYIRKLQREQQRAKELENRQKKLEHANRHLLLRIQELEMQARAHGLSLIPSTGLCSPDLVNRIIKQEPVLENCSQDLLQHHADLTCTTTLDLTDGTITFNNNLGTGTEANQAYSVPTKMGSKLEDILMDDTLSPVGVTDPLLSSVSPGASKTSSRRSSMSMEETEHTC
The data set can be described thus: reducers of TRPM1 reporter luminescence, concentration series – cell-based, SK-MEL-5, cherry-picked, set 3, MITF inhibitor project, dose response (AID 493073).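 Also: SK-MEL-5 melanoma cells with luciferase driven by the MITF target TRPM1 promoter.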 The format is functional.

Data set [9] in a line: cells. The format is functional, cell-based.
In data set [10] the target is T2, Aminopeptidase N (Plasmodium falciparum FcB1/Columbia, UniProt O96935).
T2 sequence (O96935 whole entry): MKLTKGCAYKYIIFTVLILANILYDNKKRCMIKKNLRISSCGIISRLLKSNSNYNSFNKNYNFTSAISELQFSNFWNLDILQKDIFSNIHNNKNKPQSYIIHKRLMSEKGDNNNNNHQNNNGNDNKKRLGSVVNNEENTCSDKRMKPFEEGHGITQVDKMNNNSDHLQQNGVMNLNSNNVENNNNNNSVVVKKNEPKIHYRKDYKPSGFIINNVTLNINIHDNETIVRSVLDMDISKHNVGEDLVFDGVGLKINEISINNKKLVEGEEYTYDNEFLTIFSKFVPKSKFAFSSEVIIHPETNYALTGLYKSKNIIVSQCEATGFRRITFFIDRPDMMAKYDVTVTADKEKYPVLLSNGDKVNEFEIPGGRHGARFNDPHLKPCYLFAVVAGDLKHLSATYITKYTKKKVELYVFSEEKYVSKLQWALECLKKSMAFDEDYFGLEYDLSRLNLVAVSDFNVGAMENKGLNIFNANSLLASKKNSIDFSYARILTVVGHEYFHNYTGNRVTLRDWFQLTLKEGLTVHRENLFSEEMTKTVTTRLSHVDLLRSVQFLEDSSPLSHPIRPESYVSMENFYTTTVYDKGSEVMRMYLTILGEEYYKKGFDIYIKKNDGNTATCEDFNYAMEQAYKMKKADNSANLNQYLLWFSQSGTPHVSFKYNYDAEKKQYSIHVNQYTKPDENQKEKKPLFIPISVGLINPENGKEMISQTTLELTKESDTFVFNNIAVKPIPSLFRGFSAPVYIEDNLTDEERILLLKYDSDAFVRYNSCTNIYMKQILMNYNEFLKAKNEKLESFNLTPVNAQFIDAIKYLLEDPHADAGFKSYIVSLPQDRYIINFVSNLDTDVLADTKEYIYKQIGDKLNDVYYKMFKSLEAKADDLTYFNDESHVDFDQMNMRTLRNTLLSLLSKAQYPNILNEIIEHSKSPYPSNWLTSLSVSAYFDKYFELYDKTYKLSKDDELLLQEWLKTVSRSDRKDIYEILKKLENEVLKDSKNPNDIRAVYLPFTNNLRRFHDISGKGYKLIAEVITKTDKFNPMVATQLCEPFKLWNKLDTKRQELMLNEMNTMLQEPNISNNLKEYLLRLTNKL
Kind of data set: malaria alanyl aminopeptidase activity blockers – biochemical, fluorogenic H-Leu-NHMec substrate, 1536-well (AID 1445). Further details: species or system Plasmodium falciparum 3D7, 3D7.

For data set [11], the system named is Streptococcus sp. 'group A'. Kind of data set: Streptococcus pyogenes SK(-)GAS viability under kanamycin – luminescence, BacTiterGlo, confirmation, counter-screen for streptokinase expression inhibitor project, dose response (AID 1900). The format is functional, organism-based.
A short description of data set [12]: cells. The format is functional, cell-based. This is another data set of the same source.
The nature of data set [13]: microbe, parasite or virus in culture. The note with it: Mycobacterium tuberculosis. The format is functional.
Data set [14] has as its target T3, Cytochrome P450 1A2 (Homo sapiens, UniProt P05177).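 Also: PubChem cytochrome P450 panel assay, CYP1A2 panel member.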
T3 sequence (P05177 whole entry): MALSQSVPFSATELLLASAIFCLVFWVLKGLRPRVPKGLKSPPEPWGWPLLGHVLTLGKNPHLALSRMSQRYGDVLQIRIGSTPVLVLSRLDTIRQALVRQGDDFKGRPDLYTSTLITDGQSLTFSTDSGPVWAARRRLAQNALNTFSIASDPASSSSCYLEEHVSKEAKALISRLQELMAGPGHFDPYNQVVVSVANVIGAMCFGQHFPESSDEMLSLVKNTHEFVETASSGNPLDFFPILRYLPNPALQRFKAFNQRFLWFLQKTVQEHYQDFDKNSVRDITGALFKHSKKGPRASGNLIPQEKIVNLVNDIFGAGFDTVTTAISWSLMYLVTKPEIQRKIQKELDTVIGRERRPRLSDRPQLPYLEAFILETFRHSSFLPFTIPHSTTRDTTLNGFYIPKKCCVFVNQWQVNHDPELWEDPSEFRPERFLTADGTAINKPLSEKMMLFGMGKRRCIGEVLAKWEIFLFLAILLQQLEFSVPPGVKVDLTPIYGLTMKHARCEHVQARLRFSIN

Data set [15] can be described thus: Dd2 malaria parasite growth inhibition potency – SYBR Green, dry powder samples, dose response (AID 1159566).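 Also: potency for growth inhibition with lower SYBR green DNA signal.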 The format is functional, cell-based.
Data set [16] in a line: P. falciparum Dd2 growth inhibitors, dose response, SYBR Green, cherry-picked samples (AID 1159567). The format is functional, cell-based.
Data set [17] can be described thus: growth inhibition of PfATP4-mutant resistant parasites – NITD609-resistant line, SYBR Green, dry powder, dose response (AID 1159571).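 Also: parasites synchronized at ring stage by sorbitol before testing.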 The format is functional, cell-based.
Data set [18] is described as follows: growth inhibition of yeast DHODH-expressing 3D7 parasites – SYBR Green, dry powder samples, dose response (AID 1159570).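 Also: parasite growth measured after 72 hours of compound exposure.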 In kind it is functional, cell-based.

Activity calls are given as the source filed them.

The term AC50 denotes the midpoint of the concentration-response curve, whichever way the signal moves. The IC50 is the concentration that gives 50% inhibition. For orientation: EC50 means the concentration at which the effect is half-maximal.

Cytochrome P450 2C9, sequence (P11712 whole entry): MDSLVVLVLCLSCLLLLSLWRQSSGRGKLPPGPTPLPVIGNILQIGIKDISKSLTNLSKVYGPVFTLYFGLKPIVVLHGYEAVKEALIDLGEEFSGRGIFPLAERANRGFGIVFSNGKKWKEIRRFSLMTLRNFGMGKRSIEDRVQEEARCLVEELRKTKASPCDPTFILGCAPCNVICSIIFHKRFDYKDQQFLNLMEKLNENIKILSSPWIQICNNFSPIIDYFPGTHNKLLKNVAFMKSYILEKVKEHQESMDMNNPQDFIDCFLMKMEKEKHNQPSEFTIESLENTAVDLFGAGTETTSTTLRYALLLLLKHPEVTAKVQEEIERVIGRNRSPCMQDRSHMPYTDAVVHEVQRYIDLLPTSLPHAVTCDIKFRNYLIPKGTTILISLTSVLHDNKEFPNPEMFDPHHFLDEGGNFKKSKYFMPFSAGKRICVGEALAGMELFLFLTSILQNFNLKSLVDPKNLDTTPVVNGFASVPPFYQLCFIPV
Cytochrome P450 3A4, sequence (P08684 whole entry): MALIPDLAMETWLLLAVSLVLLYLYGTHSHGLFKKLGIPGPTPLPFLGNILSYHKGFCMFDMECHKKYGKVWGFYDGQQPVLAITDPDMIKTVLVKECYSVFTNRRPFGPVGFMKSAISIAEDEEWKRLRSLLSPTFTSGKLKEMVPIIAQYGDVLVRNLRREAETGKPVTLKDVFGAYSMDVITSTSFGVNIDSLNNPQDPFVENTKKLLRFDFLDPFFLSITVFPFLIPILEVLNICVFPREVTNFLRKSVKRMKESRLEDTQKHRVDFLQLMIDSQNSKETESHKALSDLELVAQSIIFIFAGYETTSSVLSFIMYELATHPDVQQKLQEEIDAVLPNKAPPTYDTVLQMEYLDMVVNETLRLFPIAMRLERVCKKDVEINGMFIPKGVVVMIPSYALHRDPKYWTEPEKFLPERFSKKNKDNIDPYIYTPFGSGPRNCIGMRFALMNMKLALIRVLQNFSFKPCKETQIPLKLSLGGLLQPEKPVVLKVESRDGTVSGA
DNA dC->dU-editing enzyme APOBEC-3A, sequence (P31941 whole entry): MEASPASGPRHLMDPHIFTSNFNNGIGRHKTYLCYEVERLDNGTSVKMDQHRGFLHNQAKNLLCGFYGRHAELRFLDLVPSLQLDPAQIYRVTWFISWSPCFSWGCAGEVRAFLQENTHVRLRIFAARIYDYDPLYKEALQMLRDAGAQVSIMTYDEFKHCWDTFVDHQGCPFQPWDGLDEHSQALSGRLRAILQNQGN
DNA dC->dU-editing enzyme APOBEC-3G, sequence (Q9HC16 whole entry): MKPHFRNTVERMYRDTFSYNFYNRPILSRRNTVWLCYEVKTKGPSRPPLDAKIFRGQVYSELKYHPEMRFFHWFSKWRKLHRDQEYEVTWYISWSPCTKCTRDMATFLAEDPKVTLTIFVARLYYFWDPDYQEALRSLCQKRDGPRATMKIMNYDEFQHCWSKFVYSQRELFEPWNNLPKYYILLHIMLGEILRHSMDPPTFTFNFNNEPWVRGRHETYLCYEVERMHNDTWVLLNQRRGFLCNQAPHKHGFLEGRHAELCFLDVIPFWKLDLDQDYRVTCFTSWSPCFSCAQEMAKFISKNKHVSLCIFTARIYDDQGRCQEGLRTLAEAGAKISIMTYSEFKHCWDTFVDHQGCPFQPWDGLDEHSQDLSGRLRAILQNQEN
Nonstructural protein 1, sequence (Q194T2 whole entry): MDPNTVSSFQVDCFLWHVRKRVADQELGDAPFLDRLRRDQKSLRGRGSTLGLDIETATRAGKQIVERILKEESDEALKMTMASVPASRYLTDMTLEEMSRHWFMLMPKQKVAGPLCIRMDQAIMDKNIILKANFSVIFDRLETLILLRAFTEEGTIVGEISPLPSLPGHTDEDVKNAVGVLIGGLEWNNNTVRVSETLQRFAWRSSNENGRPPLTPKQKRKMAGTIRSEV

In the case of `Cc1ccc(S(=O)(=O)N2CCC(C(=O)NCCCOC(C)C)CC2)cc1`, the AC50 result in data set [1] was “inconclusive”; in data set [2], 25.1 µM (inconclusive).
`CCc1nc2cc(Cc3ccc4[nH]c(CC)nc4c3)ccc2[nH]1`: the CC50 in [3] was 15.5 µM (active).
For the compound `CN1CCN(S(=O)(=O)c2cccc(C(=O)N(C)CC(=O)Nc3ccc(F)c(F)c3F)c2)CC1`, the IC50 is 5.4 µM (active) in [4] and 3.94 µM (active) in data set [5].
On to `O=C(N/N=C/c1cc(Br)ccc1O)c1ccncc1`, for which the half-inhibitory concentration (IC50) in [6] was 5.51 µM (active); in [10] it was 7.95 µM (active). For the same compound, the EC50 was 3.78 µM (active) in [7], > 350 µM (not active) in data set [9], 3 µM (active) in data set [11] and 17.7 µM (active) in data set [12]. Also, the AC50 in data set [8] was 9.36 µM (active).
In the case of `C=CCOc1ccc2c(c1)C(=NO)c1cc(OCC=C)ccc1-2`, the CC50 in data set [13] and in [3] was > 40 µM (active) each time.
Consider `O=C(N/N=C/C1CCCCC1)c1ccccn1`, for which the AC50 result is “inconclusive” in data set [1] and 17.8 µM (inconclusive) in data set [14].
For the compound `COc1ccc2c3c(n(C)c2c1)[C@@H](CO)N(CC1CCCCC1)CC31CCN(Cc2nccs2)CC1`, the AC50 was 1.03 µM (active) in [15], 1.12 µM (active) in [16], 0.891 µM (active) in data set [17] and 0.835 µM (active) in [18].
As to `COc1ccc(NC(=O)N2CCCCN3[C@H](CO)[C@H](c4ccc(C#Cc5ccccn5)cc4)[C@@H]3C2)cc1`, the AC50 in [15] was 0.131 µM (active); in data set [16] it was 0.301 µM (active); in data set [17], 0.109 µM (active); in [18], 0.109 µM (active).
